In patent US20100130737A1, “Regulating Agent of GPR34 Receptor Function” (TAKEDA PHARMACEUTICAL COMPANY LIMITED, priority 2005, published 2010):
Counter-ions that a name gives are not always drawn.

With `N[C@H](Cc1c[nH]c2ccccc12)C(=O)NC1(C(=O)O)Cc2ccc(-c3ccc(Cl)cc3)cc2C1` (stereo partly drawn) (as salt: hydrochloride) [Example B122, 5-(4-Chlorophenyl)-2-(D-tryptophylamino)indan-2-carboxylic acid hydrochloride] the melting point was 168 to 170 °C.
Molecule `Cc1nc2ccccc2n1CC(=O)NC1(C(=O)O)Cc2ccc(-c3ccc(Cl)cc3)cc2C1` (centres unmarked) (as salt: hydrochloride) [Example B159, 5-(4-Chlorophenyl)-2-{[(2-methyl-1H-benzimidazol-1-yl)acetyl]amino}indan-2-carboxylic acid hydrochloride] has a melting point of 284 to 285 °C.
With `O=C(Cc1cccnc1)NC1(C(=O)O)Cc2ccc(-c3ccc(Cl)cc3)cc2C1` (centres unmarked) (as salt: hydrochloride) [Example B175, 5-(4-Chlorophenyl)-2-[(pyridin-3-ylacetyl)amino]indan-2-carboxylic acid hydrochloride] the melting point was 288 °C.
Work on `Cc1c(C(=O)NC(Cc2ccc(OCc3ccc(F)cc3)cc2)C(=O)O)oc2cc(-c3ccc(Cl)cc3)ccc12` (racemic) [Example C117, N-{[6-(4-Chlorophenyl)-3-methyl-1-benzofuran-2-yl]carbonyl}-O-(4-fluorobenzyl)-DL-tyrosine] yielded a melting point of 147 to 149 °C.
In the case of `O=C(Cc1ccc(OCc2ccccc2)cc1)Nc1c(C(=O)O)oc2cc(-c3ccc(Cl)cc3)ccc12` [Example A23, 3-({[4-(Benzyloxy)phenyl]acetyl}amino)-6-(4-chlorophenyl)-1-benzofuran-2-carboxylic acid], the melting point is reported as 211 to 212 °C.
In the case of `O=C(Cc1ccc(OCc2ccc(F)cc2)cc1)Nc1c(C(=O)O)oc2cc(-c3ccc(Cl)cc3)ccc12` [Example A24, 6-(4-Chlorophenyl)-3-[({4-[(4-fluorobenzyl)oxy]phenyl}acetyl)amino]-1-benzofuran-2-carboxylic acid], the melting point is reported as 205 to 206 °C.
`O=C(CCc1ccc(OCc2ccccc2)cc1)Nc1c(C(=O)O)oc2cc(-c3ccc(Cl)cc3)ccc12` [Example A25, 3-({3-[4-(Benzyloxy)phenyl]propanoyl}amino)-6-(4-chlorophenyl)-1-benzofuran-2-carboxylic acid] gave a melting point of 209 to 210 °C.
`O=C(CSc1nc2ccccc2s1)NC1(C(=O)O)Cc2ccc(-c3ccc(Cl)cc3)cc2C1` (centres unmarked) [Example B117, 2-{[(1,3-Benzothiazol-2-ylthio)acetyl]amino}-5-(4-chlorophenyl)indan-2-carboxylic acid] showed a melting point of 205 to 207 °C.
`CC(C)(C)OC(=O)NCCC(=O)NC1(C(=O)O)Cc2ccc(-c3ccc(Cl)cc3)cc2C1` (centres unmarked) [Example B118, 2-{[3-(tert-Butoxycarbonylamino)propionyl]amino}-5-(4-chlorophenyl) indan-2-carboxylic acid] gave a melting point of 212 to 214 °C.
Molecule `CC(C)(C)OC(=O)N[C@H](Cc1c[nH]c2ccccc12)C(=O)NC1(C(=O)O)Cc2ccc(-c3ccc(Cl)cc3)cc2C1` (stereo partly drawn) [Example B119, 2-{[N-(tert-Butoxycarbonyl)-D-tryptophyl]amino}-5-(4-chlorophenyl)indan-2-carboxylic acid] has a melting point of 158 °C.
`CC(C)(C)OC(=O)N[C@@H](Cc1ccccc1)C(=O)NC1(C(=O)O)Cc2ccc(-c3ccc(Cl)cc3)cc2C1` (some centres unmarked) [Example B120, 2-{[N-(tert-Butoxycarbonyl)phenylalanyl]amino}-5-(4-chlorophenyl)indan-2-carboxylic acid] gave a melting point of 140 to 142 °C.
In the case of `O=C(CN1CCN(c2ccccc2)CC1)NC1(C(=O)O)Cc2ccc(-c3ccc(Cl)cc3)cc2C1` (centres unmarked) [Example B124, 5-(4-Chlorophenyl)-2-{[(4-phenylpiperazine-1-yl)acetyl]amino)indan-2-carboxylic acid], the melting point is reported as 247 °C.
`O=C(Cc1ccccc1OCc1ccccc1)NC1(C(=O)O)Cc2ccc(-c3ccc(Cl)cc3)cc2C1` (centres unmarked) [Example B126, 2-({[2-(Benzyloxy)phenyl]acetyl}amino)-5-(4-chlorophenyl)indan-2-carboxylic acid] gave a melting point of 245 °C.
For `O=C(Cc1ccc(Cl)cc1)NC1(C(=O)O)Cc2ccc(-c3ccc(Cl)cc3)cc2C1` (centres unmarked) [Example B127, 5-(4-Chlorophenyl)-2-{[(4-chlorophenyl)acetyl]amino}indan-2-carboxylic acid], the melting point was 251 °C.
Molecule `O=C(CN1CCN(C(c2ccc(F)cc2)c2ccc(F)cc2)CC1)NC1(C(=O)O)Cc2ccc(-c3ccc(Cl)cc3)cc2C1` (centres unmarked) [Example B128, 2-[({4-[bis(4-Fluorophenyl)methyl]piperazine-1-yl)acetyl)amino]-5-(4-chlorophenyl)indan-2-carboxylic acid] has a melting point of 184 °C.
Work on `Cc1c(C(=O)NC2(C(=O)O)Cc3ccc(-c4ccc(Cl)cc4)cc3C2)oc2cc(-c3ccc(Cl)cc3)ccc12` (centres unmarked) [Example B129, 5-(4-Chlorophenyl)-2-({[6-(4-chlorophenyl)-3-methyl-1-benzofuran-2-yl]carbonyl}amino)indan-2-carboxylic acid] yielded a melting point of 257 °C.
For `O=C(O)C1(NS(=O)(=O)Cc2ccc(F)cc2)Cc2ccc(-c3ccc(Cl)cc3)cc2C1` (centres unmarked) [Example B130, 5-(4-Chlorophenyl)-2-{[(4-fluorobenzyl)sulfonyl]amino}indan-2-carboxylic acid], the melting point was 210 to 213 °C.
Work on `COc1ccc(-c2ccc3c(c2)CC(NC(=O)Cc2ccc(F)cc2)(C(=O)O)C3)cc1` (centres unmarked) [Example B131, 2-{[(4-Fluorophenyl)acetyl]amino}-5-(4-methoxyphenyl)indan-2-carboxylic acid] yielded a melting point of 227 °C.
With `O=C(CCc1ccc(F)cc1)NC1(C(=O)O)Cc2ccc(-c3ccc(Cl)cc3)cc2C1` (centres unmarked) [Example B132, 5-(4-Chlorophenyl)-2-{[3-(4-fluorophenyl)propanoyl]amino}indan-2-carboxylic acid] the melting point was 220 °C.
With `O=C(NC1(C(=O)O)Cc2ccc(-c3ccc(Cl)cc3)cc2C1)c1ccc(F)cc1` (centres unmarked) [Example B133, 5-(4-Chlorophenyl)-2-[(4-fluorobenzoyl)amino]indan-2-carboxylic acid] the melting point was 251 °C.
`CS(=O)(=O)c1ccc(CC(=O)NC2(C(=O)O)Cc3ccc(-c4ccc(Cl)cc4)cc3C2)cc1` (centres unmarked) [Example B135, 5-(4-Chlorophenyl)-2-({[4-(methylsulfonyl)phenyl]acetyl}amino)indan-2-carboxylic acid] gave a melting point of 216 °C.
With `O=C(Cc1ccccc1Cl)NC1(C(=O)O)Cc2ccc(-c3ccc(Cl)cc3)cc2C1` (centres unmarked) [Example B136, 5-(4-Chlorophenyl)-2-{[(2-chlorophenyl)acetyl]amino}indan-2-carboxylic acid] the melting point was 222 °C.
For `O=C(NC1(C(=O)O)Cc2ccc(-c3ccc(Cl)cc3)cc2C1)c1ccc2ncsc2c1` (centres unmarked) [Example B137, 2-[(1,3-Benzothiazol-6-ylcarbonyl)amino]-5-(4-chlorophenyl)indan-2-carboxylic acid], the melting point was 210 °C.
Work on `O=C(Cc1cccc(Cl)c1)NC1(C(=O)O)Cc2ccc(-c3ccc(Cl)cc3)cc2C1` (centres unmarked) [Example B138, 5-(4-Chlorophenyl)-2-{[(3-chlorophenyl)acetyl]amino}indan-2-carboxylic acid] yielded a melting point of 234 °C.
`CC(C(=O)NC1(C(=O)O)Cc2ccc(-c3ccc(Cl)cc3)cc2C1)c1ccccc1` (centres unmarked) [Example B139, 5-(4-Chlorophenyl)-2-[(2-phenylpropanoyl)amino]indan-2-carboxylic acid] showed a melting point of 200 to 201 °C.
With `O=C(Cc1ccc(NC(=O)c2ccc(F)cc2)cc1)NC1(C(=O)O)Cc2ccc(-c3ccc(Cl)cc3)cc2C1` (centres unmarked) [Example B140, 5-(4-Chlorophenyl)-2-[({4-[(4-fluorobenzoyl)amino]phenyl}acetyl)amino]indan-2-carboxylic acid] the melting point was 252 to 254 °C.
Molecule `O=C(Cc1ccc(OCc2ccccc2F)cc1)NC1(C(=O)O)Cc2ccc(-c3ccc(Cl)cc3)cc2C1` (centres unmarked) [Example B141, 5-(4-Chlorophenyl)-2-[({4-[(2-fluorobenzyl)oxy]phenyl}acetyl)amino]indan-2-carboxylic acid] has a melting point of 232 to 233 °C.
For `O=C(Cc1ccc(OCc2cccc(F)c2)cc1)NC1(C(=O)O)Cc2ccc(-c3ccc(Cl)cc3)cc2C1` (centres unmarked) [Example B142], the melting point was 209 °C.
In the case of `O=C(Cc1ccc(OCc2ccc(Cl)cc2)cc1)NC1(C(=O)O)Cc2ccc(-c3ccc(Cl)cc3)cc2C1` (centres unmarked) [Example B143, 2-[({4-[(4-Chlorobenzyl)oxy]phenyl}acetyl)amino]-5-(4-chlorophenyl)indan-2-carboxylic acid], the melting point is reported as 230 to 232 °C.
Molecule `O=C(Cc1ccc(OCc2ccc(F)cc2Cl)cc1)NC1(C(=O)O)Cc2ccc(-c3ccc(Cl)cc3)cc2C1` (centres unmarked) [Example B144, 2-[({4-[(2-Chloro-4-fluorobenzyl)oxy]phenyl}acetyl)amino]-5-(4-chlorophenyl)indan-2-carboxylic acid] has a melting point of 200 to 201 °C.
Work on `O=C(Cc1ccc(OCc2ccc(C(F)(F)F)cc2)cc1)NC1(C(=O)O)Cc2ccc(-c3ccc(Cl)cc3)cc2C1` (centres unmarked) [Example B145, 5-(4-Chlorophenyl)-2-{[(4-{[4-(trifluoromethyl)benzyl]oxy}phenyl)acetyl]amino)indan-2-carboxylic acid] yielded a melting point of 237 to 238 °C.
With `O=C(Cc1ccc(OCc2ccoc2)cc1)NC1(C(=O)O)Cc2ccc(-c3ccc(Cl)cc3)cc2C1` (centres unmarked) [Example B146, 5-(4-Chlorophenyl)-2-({[4-(3-furylmethoxy)phenyl]acetyl}amino)indan-2-carboxylic acid] the melting point was 200 to 202 °C.
In the case of `O=C(Cc1ccc(OCc2ccsc2)cc1)NC1(C(=O)O)Cc2ccc(-c3ccc(Cl)cc3)cc2C1` (centres unmarked) [Example B147, 5-(4-Chlorophenyl)-2-({[4-(3-thienylmethoxy)phenyl]acetyl}amino)indan-2-carboxylic acid], the melting point is reported as 224 to 226 °C.
In the case of `O=C(O)CNC(=O)C1(NC(=O)Cc2ccc(OCc3ccccc3)cc2)Cc2ccc(-c3ccc(Cl)cc3)cc2C1` (centres unmarked) [Example B148, N-{[2-({[4-(Benzyloxy)phenyl]acetyl)amino)-5-(4-chlorophenyl)-2,3-dihydro-1H-inden-2-yl]carbonyl}glycine], the melting point is reported as 217 to 218 °C.
`O=C(O)CNC(=O)C1(NC(=O)Cc2ccc(OCc3ccc(F)cc3)cc2)Cc2ccc(-c3ccc(Cl)cc3)cc2C1` (centres unmarked) [Example B149, N-({5-(4-Chlorophenyl)-2-[({4-[(4-fluorobenzyl)oxy]phenyl}acetyl)amino]-2,3-dihydro-1H-inden-2-yl}carbonyl)glycine] showed a melting point of 209 to 210 °C.
